Results as given in patent publication US20250171438A1 (Agios Pharmaceuticals, Inc., priority 2022, published 2025).

Target: T1, human PAH with the R408W mutation (Homo sapiens, UniProt P00439, R408W)
T1 construct: expressed in transfected cells
T1 sequence (P00439 1-452 R408W): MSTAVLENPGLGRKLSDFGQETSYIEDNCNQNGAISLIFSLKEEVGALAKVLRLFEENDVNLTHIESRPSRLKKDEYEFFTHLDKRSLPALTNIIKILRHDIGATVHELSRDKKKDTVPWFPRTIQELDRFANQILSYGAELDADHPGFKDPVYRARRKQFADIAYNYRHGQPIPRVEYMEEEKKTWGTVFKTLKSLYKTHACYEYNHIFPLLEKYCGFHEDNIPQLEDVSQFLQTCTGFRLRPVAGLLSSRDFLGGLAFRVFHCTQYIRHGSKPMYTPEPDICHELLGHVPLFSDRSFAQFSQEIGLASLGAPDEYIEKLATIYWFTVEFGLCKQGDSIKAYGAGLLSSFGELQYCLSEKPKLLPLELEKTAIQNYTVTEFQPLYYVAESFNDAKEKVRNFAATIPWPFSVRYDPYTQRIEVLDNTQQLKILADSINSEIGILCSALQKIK
Assay: Cell Based Phenylalanine Flux Assay
Design: scale not given here
Details: A375 cells expressing human R408W PAH; 24 hrs compound incubation; 13C-Tyrosine by LC-MS; average where tested multiple times; read-out: AC50

| AC50 [nM] | Compound |
| --- | --- |
| > 5000 | O=C(c1ocnc1-c1ccccc1)N1CCc2[nH]cnc2[C@@H]1c1nc2c(F)cccc2s1 [Example 2178, (R)-(4-(4-fluorobenzo[d]thiazol-2-yl)-6,7-dihydro-1H-imidazo[4,5-c]pyridin-5(4H)-yl)(4-phenyloxazol-5-yl)methanone] |
| 500 to 1000 | C=Cc1ccc2c(C(=O)N3CCc4[nH]cnc4[C@H]3c3nc4ccccc4s3)cnn2c1 [Example 1231] |
| 1000 to 5000 | O=C(c1oc(-c2ccccn2)nc1Br)N1CCc2[nH]cnc2[C@@H]1c1nc2ccccc2s1 [Example 1849, (R)-(4-(benzo[d]thiazol-2-yl)-6,7-dihydro-1H-imidazo[4,5-c]pyridin-5(4H)-yl)(4-bromo-2-(pyridin-2-yl)oxazol-5-yl)methanone] |
| 500 to 1000 | Cc1ccc2sc([C@@H]3c4nc[nH]c4CCN3C(=O)c3cnco3)nc2c1 [Example 2173, (S)-(4-(5-methylbenzo[d]thiazol-2-yl)-6,7-dihydro-1H-imidazo[4,5-c]pyridin-5(4H)-yl)(oxazol-5-yl)methanone] |
| < 500 | O=C(c1oc(OCCC(F)(F)F)nc1C(F)F)N1CCc2[nH]cnc2[C@H]1c1nc2ccccc2s1 [Example 1772] |
| < 500 | O=C(c1nnc(-c2ccccn2)o1)N1CCc2[nH]cnc2[C@H]1c1nc2cc(F)ccc2s1 [Example 1748, (S)-(4-(5-fluorobenzo[d]thiazol-2-yl)-6,7-dihydro-1H-imidazo[4,5-c]pyridin-5(4H)-yl)(5-(pyridin-2-yl)-1,3,4-oxadiazol-2-yl)methanone] |
| < 500 | CC(C)(C)c1ncc(C(=O)N2CCc3[nH]cnc3[C@H]2c2nc3ccccc3s2)s1 [Example 1421] |
| 500 to 1000 | Cc1nc(C)c(C(=O)N2CCc3[nH]cnc3[C@H]2c2nc3ccccc3s2)s1 [Example 1177] |
| > 5000 | Cc1nc(-c2ccccc2)c(C(=O)N2CCc3[nH]cnc3[C@@H]2c2nc3ccccc3s2)o1 [Example 1519, (R)-(4-(benzo[d]thiazol-2-yl)-6,7-dihydro-1H-imidazo[4,5-c]pyridin-5(4H)-yl)(2-methyl-4-phenyloxazol-5-yl)methanone] |

The next lines start with the molecule.

| Compound | AC50 [nM] |
| --- | --- |
| Cc1nc(C(C)(C)C#N)oc1C(=O)N1CCc2[nH]cnc2[C@@H]1c1nc2c(F)cccc2s1 [Example 1997, (R)-2-(5-(4-(4-fluorobenzo[d]thiazol-2-yl)-4,5,6,7-tetrahydro-1H-imidazo[4,5-c]pyridine-5-carbonyl)-4-methyloxazol-2-yl)-2-methylpropanenitrile] | 1000 to 5000 |
| O=C(c1cnn(-c2ccccn2)c1Cl)N1CCc2[nH]cnc2[C@@H]1c1nc2c(F)cccc2s1 [Example 1766, (R)-(5-chloro-1-(pyridin-2-yl)-1H-pyrazol-4-yl)(4-(4-fluorobenzo[d]thiazol-2-yl)-6,7-dihydro-1H-imidazo[4,5-c]pyridin-5(4H)-yl)methanone] | 1000 to 5000 |
| O=C(c1cnn2ccccc12)N1CCc2[nH]cnc2[C@@H]1c1nc2ccc(Br)cc2[nH]1 [Example 941, (R)-(4-(6-bromo-1H-benzo[d]imidazol-2-yl)-6,7-dihydro-1H-imidazo[4,5-c]pyridin-5(4H)-yl)(pyrazolo[1,5-a]pyridin-3-yl)methanone] | 1000 to 5000 |
| O=C(CCc1nccs1)N1CCc2[nH]cnc2[C@H]1c1nc2ccccc2s1 [Example 1003] | 500 to 1000 |
| O=C(c1nccs1)N1CCc2[nH]cnc2[C@@H]1c1nc2cccc(Br)c2s1 [Example 1199, (R)-(4-(7-bromobenzo[d]thiazol-2-yl)-6,7-dihydro-1H-imidazo[4,5-c]pyridin-5(4H)-yl)(thiazol-2-yl)methanone] | 1000 to 5000 |
| Cc1nc(C2CC2)oc1C(=O)N1CCc2[nH]cnc2[C@H]1c1nc2c(F)cccc2s1 [Example 1527] | < 500 |
| O=C(c1nc(Cl)cs1)N1CCc2[nH]cnc2[C@@H]1c1nc2cccc(F)c2s1 [Example 1264, (R)-(4-chlorothiazol-2-yl)(4-(7-fluorobenzo[d]thiazol-2-yl)-6,7-dihydro-1H-imidazo[4,5-c]pyridin-5(4H)-yl)methanone] | 1000 to 5000 |
| O=C(c1sc(C2CC2)nc1Cl)N1CCc2[nH]cnc2[C@@H]1c1nc2c(F)cccc2s1 [Example 1632, (R)-(4-chloro-2-cyclopropylthiazol-5-yl)(4-(4-fluorobenzo[d]thiazol-2-yl)-6,7-dihydro-1H-imidazo[4,5-c]pyridin-5(4H)-yl)methanone] | 1000 to 5000 |
| O=C(c1cnn(CC(F)(F)F)c1Cl)N1CCc2[nH]cnc2[C@H]1c1nc2c(F)cccc2s1 [Example 1967, (S)-(5-chloro-1-(2,2,2-trifluoroethyl)-1H-pyrazol-4-yl)(4-(4-fluorobenzo[d]thiazol-2-yl)-6,7-dihydro-1H-imidazo[4,5-c]pyridin-5(4H)-yl)methanone] | < 500 |
| O=C(CCC1CC1)N1CCc2[nH]cnc2[C@@H]1c1nc2ccccc2s1 [Example 1022, (R)-1-(4-(benzo[d]thiazol-2-yl)-6,7-dihydro-1H-imidazo[4,5-c]pyridin-5(4H)-yl)-3-cyclopropylpropan-1-one] | 1000 to 5000 |
| O=C(CCC1CC1)N1CCc2[nH]cnc2[C@H]1c1nc2ccc(Cl)cc2[nH]1 [Example 939, (S)-1-(4-(6-chloro-1H-benzo[d]imidazol-2-yl)-6,7-dihydro-1H-imidazo[4,5-c]pyridin-5(4H)-yl)-3-cyclopropylpropan-1-one] | < 500 |
| c1ccc2[nH]c([C@H]3c4nc[nH]c4CCN3Cc3nccs3)nc2c1 (single isomer, unassigned) [Example 926] | > 5000 |
| O=C(c1cnc(-c2ccccn2)s1)N1CCc2[nH]cnc2[C@H]1c1nc2ccccc2[nH]1 [Example 989, (S)-(4-(1H-benzo[d]imidazol-2-yl)-6,7-dihydro-1H-imidazo[4,5-c]pyridin-5(4H)-yl)(2-(pyridin-2-yl)thiazol-5-yl)methanone] | 500 to 1000 |
| CC(C)(O)c1ccc2c(C(=O)N3CCc4[nH]cnc4[C@@H]3c3nc4c(F)cccc4s3)cnn2c1 [Example 1502, (R)-(4-(4-fluorobenzo[d]thiazol-2-yl)-6,7-dihydro-1H-imidazo[4,5-c]pyridin-5(4H)-yl)(6-(2-hydroxypropan-2-yl)pyrazolo[1,5-a]pyridin-3-yl)methanone] | 1000 to 5000 |
| O=C(C1CC1)N1CCc2[nH]cnc2[C@H]1c1nc2ccc(Br)cc2[nH]1 [Example 952, (S)-(4-(6-bromo-1H-benzo[d]imidazol-2-yl)-6,7-dihydro-1H-imidazo[4,5-c]pyridin-5(4H)-yl)(cyclopropyl)methanone] | 500 to 1000 |
| O=C(CC1CC(F)C1)N1CCc2[nH]cnc2[C@H]1c1nc2c(F)cccc2s1 (stereo partly drawn) [Example 1649, (S)-1-(4-(4-fluorobenzo[d]thiazol-2-yl)-6,7-dihydro-1H-imidazo[4,5-c]pyridin-5(4H)-yl)-2-(3-fluorocyclobutyl)ethanone] | < 500 |
| O=C(CC1CC1(F)F)N1CCc2[nH]cnc2[C@@H]1c1nc2ccccc2s1 (stereo partly drawn) [Example 1273, 1-((R)-4-(benzo[d]thiazol-2-yl)-6,7-dihydro-1H-imidazo[4,5-c]pyridin-5(4H)-yl)-2-(2,2-difluorocyclopropyl)ethanone] | > 5000 |
| O=C(CC1CC1)N1CCc2[nH]cnc2[C@H]1c1nc2ccccc2s1 [Example 1071] | < 500 |
| O=C(CC1(O)CCC1)N1CCc2[nH]cnc2[C@H]1c1nc2c(F)cccc2s1 [Example 1647, (S)-1-(4-(4-fluorobenzo[d]thiazol-2-yl)-6,7-dihydro-1H-imidazo[4,5-c]pyridin-5(4H)-yl)-2-(1-hydroxycyclobutyl)ethanone] | 500 to 1000 |
| O=C(c1ocnc1C1CC1)N1CC2(CC2)c2[nH]cnc2[C@H]1c1nc2ccccc2s1 [Example 1669, (S)-(4′-(benzo[d]thiazol-2-yl)spiro[cyclopropane-1,7′-imidazo[4,5-c]pyridin]-5′(1′H,4′H,6′H)-yl)(4-cyclopropyloxazol-5-yl)methanone] | < 500 |
| O=C(c1cnn(-c2ccccn2)c1Cl)N1CCc2[nH]cnc2[C@H]1c1nc2c(F)cccc2s1 [Example 1765] | 500 to 1000 |
| O=C(c1cnn(CC(F)F)c1Cl)N1CCc2[nH]cnc2[C@H]1c1nc2c(F)cccc2s1 [Example 2017, (S)-(5-chloro-1-(2,2-difluoroethyl)-1H-pyrazol-4-yl)(4-(4-fluorobenzo[d]thiazol-2-yl)-6,7-dihydro-1H-imidazo[4,5-c]pyridin-5(4H)-yl)methanone] | < 500 |

Same assay, conditions: A375 cells expressing human R408W PAH; 24 hrs with compound; 13C-Tyrosine by LC-MS; average where tested multiple times

| Compound | AC50 |
| --- | --- |
| COCCc1ncc(C(=O)N2CC(C)c3[nH]cnc3C2c2nc3ccccc3s2)o1 [(4R,7R) diastereomer of 2-[5-[2-(2-methoxyethyl)-1,3-oxazole] | E, E |
| O=C(c1c(C(F)(F)F)nn2ccccc12)N1CCc2[nH]cnc2[C@H]1c1nc2ccccc2s1 (single isomer, unassigned) | E, E |
| NC(=O)c1nc(-c2ccccn2)oc1C(=O)N1CCc2[nH]cnc2C1c1nc2ccccc2s1 (stereo not shown) | E, E |

Same assay, conditions: A375 cells expressing human R408W PAH; 24 hrs with compound; 13C-Tyrosine by LC-MS; average where tested multiple times; read-out: AC50

| AC50 [nM] | Compound |
| --- | --- |
| 1000 to 5000 | O=C(c1nc2ccccc2s1)N1CCc2[nH]cnc2C1c1nc2ccc(Cl)cc2[nH]1 (stereo not shown) |
| 1000 to 5000 | O=C(c1ccn[nH]1)N1CCc2[nH]cnc2C1c1nc2ccccc2s1 (stereo not shown) |

Second part, the molecule before the results:

| Compound | AC50 [nM] |
| --- | --- |
| O=C(c1ncco1)N1CCc2[nH]cnc2C1c1nc2ccc(F)cc2s1 (stereo not shown) | > 5000 |
| O=C(Cc1nccs1)N1CCc2[nH]cnc2C1c1nc2ccc(Br)cc2[nH]1 (stereo not shown) | 1000 to 5000 |
| O=C(c1cnn(CC(F)(F)F)c1)N1CCc2[nH]cnc2C1c1nc2ccccc2s1 (stereo not shown) | 1000 to 5000 |
| Cn1nc(COC(F)(F)F)cc1C(=O)N1CCc2[nH]cnc2C1c1nc2c(F)cccc2s1 (stereo not shown) | 1000 to 5000 |
